According to patent US20220296595A1, “CDK INHIBITORS” (QILU REGOR THERAPEUTICS INC., priority 2019, published 2022):
pIC50: −log10 of the molar value. Read-outs that look alike come from different tables or passages of the source.

Tests used:
[1] = test system: T47D breast cancer cells; test: Anti-proliferation assay in T47D cell (Cyquant, day 6); format: cell-based, human; details: anti-proliferation, T47D cells, read-out: T47D IC50
Text: T47D is a human breast cancer cell line commonly used in biomedical research involving the hormonal expression of cancer cells. T47D cells are distinct from other human breast cancer cells in that their progesterone receptors (PR) are not regulated by estradiol, a hormone that is abundant within the cells themselves. T47D cells have been employed in studies of the effects of progesterone on breast cancer and the corresponding transcriptional regulation caused by introduced drugs. The cells have been noted to be extremely resistant to estrogens and antiestrogens.
T47D breast cancer cells from American Type Culture Collection (ATCC, HTB-133) were plated at 3000 cells/well in 96-well plates, and were incubated in RPMI 1640 medium (Gibco, 31800105) with 10% Fetal Bovine Serum (FBS, Biowest, FB-1058) at 37° C., 5% CO2. After overnight incubation, baseline values were measured of the samples from one plate using Cyquant reagent (Invitrogen, C35011) following manufacturer's recommendations. Cells were incubated with the detection reagent for 1 hour at 37° C., and then the fluorescence was measured with excitation at 485 nm and emission at 535 nm using Spectra Max M5 (Molecular Devices, HD-4HYSG3196). Other plates were dosed with compounds at a ten-point dose concentration from 10 μM to 0.51 nM in a 3-fold dilution scheme. On day 6 after compound addition, Cyquant reagent was added and the fluorescence was measured using Spectra Max M5. The IC50 values of the test compound's anti-proliferation activity were determined from the baseline subtracted viability readout curve using Xlfit5/GraphPad Prism 5 software.

[2] = target: T1, CDK2/CyclinE1 (Homo sapiens, UniProt P24941); test: Assay for inhibition of CDK2/CyclinE1 (Caliper microfluidic kinase assay); format: biochemical; details: read-out: CDK2 IC50
T1 construct: purchased SignalChem C29-18G
Experimental: The CDK2 enzyme assay for IC50 determination was performed as follows. Microfluidic kinase detection technology (Caliper) was used to monitor the phosphorylation of peptide substrate by CDK2/CyclinE1. The total reaction volume was 15 μL containing buffer A (100 mM HEPES (pH 7.5), 0.1% BSA, 0.01% Triton X-100, 1 mM DTT, 10 mM MgCl2, 10 μM Sodium Orthovanadate, 10 μM Beta-Glycerophosphate), 100 μM ATP, 5 nM CDK2/CyclinE1 (SignalChem, C29-18G), 5 μM FL-18 (5-FAM-QSPKKG-NH2), and the test compound at appropriate dilutions in DMSO. All components were added to the 384-well plate (Corning, 4514), and incubate at Room Temperature for 3 hours. The reaction was terminated by addition of 15 μL Stop Buffer (180 mM HEPES (pH 7.5), 20 mM EDTA, Coating-3 reagent (PerkinElmer, 760050)). The plate was loaded on Caliper EZ Reader (EZ Reader II, PerkinElmer, HD-4HYSG2772), and the reaction mixtures including substrate and product were sipped into the microfluidic chip for separation and detection. The IC50 values of the test compound were determined by fitting the inhibition curves by 4 parameter sigmoidal dose-response model using the Xlfit5/GraphPad Prism 5 software.

[3] = target: T2, CDK4/CyclinD1 (Homo sapiens, UniProt P11802); test: Assay for inhibition of CDK4/CyclinD1 (Caliper microfluidic kinase assay); format: biochemical
T2 construct: purchased Thermofisher PR8064A
Experimental: The CDK4 enzyme assay for IC50 determination was performed as follows. Microfluidic kinase detection technology (Caliper) was used to monitor the phosphorylation of peptide substrate by CDK4/CyclinD1. The total reaction volume was 15 μL containing buffer A (100 mM HEPES (pH 7.5), 0.1% BSA, 0.01% Triton X-100, 1 mM DTT, 10 mM MgCl2, 10 μM Sodium Orthovanadate, 10 μM Beta-Glycerophosphate), 200 μM ATP, 1 nM CDK4/CyclinD1 (Thermofisher, PR8064A), 1 μM FL-34 (5-FAM-[…]), and the test compound at appropriate dilutions in DMSO. All components were added to the 384-well plate (Corning, 4514), and incubated at Room Temperature for 3 hours. The reaction was terminated by addition of 15 μL Stop Buffer (180 mM HEPES (pH 7.5), 20 mM EDTA, Coating-3 reagent (PerkinElmer, 760050)). The plate was then loaded on Caliper EZ Reader (EZ Reader II, PerkinElmer, HD-4HYSG2772), and the reaction mixtures including substrate and product were sipped into the microfluidic chip for separation and detection. The IC50 values of the test compound were determined by fitting the inhibition curves by 4 parameter sigmoidal dose-response model using the Xlfit5/GraphPad Prism 5 software.

T2 sequence (P11802 whole entry): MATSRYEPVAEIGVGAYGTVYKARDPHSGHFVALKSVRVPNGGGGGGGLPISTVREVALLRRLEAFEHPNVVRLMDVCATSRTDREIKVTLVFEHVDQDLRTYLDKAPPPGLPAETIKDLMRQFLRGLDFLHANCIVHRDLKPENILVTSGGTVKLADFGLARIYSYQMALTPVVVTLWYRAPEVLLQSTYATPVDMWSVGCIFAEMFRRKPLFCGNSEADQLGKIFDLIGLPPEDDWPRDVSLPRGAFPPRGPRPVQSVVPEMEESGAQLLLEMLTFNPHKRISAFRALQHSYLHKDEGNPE
T2 sequence (P24385 whole entry partner): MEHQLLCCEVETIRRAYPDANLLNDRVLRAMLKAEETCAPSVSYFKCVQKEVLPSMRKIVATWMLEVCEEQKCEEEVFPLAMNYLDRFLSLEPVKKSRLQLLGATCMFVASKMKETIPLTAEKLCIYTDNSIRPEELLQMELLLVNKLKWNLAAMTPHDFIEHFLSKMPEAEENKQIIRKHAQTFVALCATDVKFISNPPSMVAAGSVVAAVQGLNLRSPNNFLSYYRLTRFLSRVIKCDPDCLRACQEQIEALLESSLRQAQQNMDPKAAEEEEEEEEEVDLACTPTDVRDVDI

SMILES | pIC50 [1] | pIC50 ([2]; CDK2/CyclinE1, 100 μM ATP) | pIC50 ([3]; CDK4/CyclinD1, 200 μM ATP) | pIC50 ([1]; Homo sapiens, T47D) | pIC50 ([2]; CDK2/CyclinE1) | pIC50 ([3]; CDK4/CyclinD1)
CNC1CCN(c2ccc(Nc3nccc(-c4ccn5ncc(C(C)C)c5c4)n3)nc2)C(=O)C1 (single isomer, unassigned) [Synthetic Example 206, 1-[6-[[4-(3-isopropylpyrazolo[1,5-a]pyridin-5-yl)pyrimidin-2-yl]amino]-3-pyridyl]-4-(methylamino)piperidin-2-one] | > 7.00 | > 8.00 | > 8.00 | – | – | –
Cc1nc2c(F)nc(-c3ccnc(Nc4ccc(N5CCCC(N(C)C)C5=O)cn4)n3)cc2n1C(C)C (single isomer, unassigned) [Synthetic Example 302, 3-(dimethylamino)-1-[6-[[4-(4-fluoro-1-isopropyl-2-methyl-imidazo[4,5-c]pyridin-6-yl)pyrimidin-2-yl]amino]-3-pyridyl]piperidin-2-one] | – | < 6.00 | > 8.00 | > 7.00 | – | –
Cc1nc2c(F)nc(-c3ccnc(Nc4ccc(N5CCCC(N(C)C)C5=O)cn4)n3)cc2n1C(C)C (single isomer, unassigned) [Synthetic Example 303, 3-(dimethylamino)-1-[6-[[4-(4-fluoro-1-isopropyl-2-methyl-imidazo[4,5-c]pyridin-6-yl)pyrimidin-2-yl]amino]-3-pyridyl]piperidin-2-one] | > 7.00 | < 6.00 | > 8.00 | – | – | –
CC(C)c1cnn2ccc(-c3nc(Nc4ccc(N5CCN(C6CC6)CCC5=O)cn4)ncc3F)cc12 [Synthetic Example 49] | – | 6.00 to 7.00 | > 8.00 | 6.30 to 7.00 | – | –
CC(C)c1cnn2ccc(-c3nc(Nc4ccc(S(C)(=O)=O)cc4)ncc3F)cc12 [compound 6] | – | 7.00 to 8.00 | 6.00 to 7.00 | 6.00 to 6.30 | – | –
O=C1COCCN1c1ccc(Nc2ncc(F)c(-c3ccn4ncc(C5CCCC5)c4c3)n2)nc1 [compound 12] | – | 6.00 to 7.00 | 7.00 to 8.00 | 6.00 to 6.30 | – | –
CCN1CC(=O)N(c2ccc(Nc3ncc(F)c(-c4ccn5ncc(C(C)C)c5c4)n3)nc2)CC1=O [compound 14] | – | 7.00 to 8.00 | 7.00 to 8.00 | > 7.00 | – | –
CC(C)c1cnn2ccc(-c3ccnc(Nc4ccc(C(=O)N5CCC(NC6CC6)C5)cc4)n3)cc12 (stereo not drawn) [compound 21] | > 7.00 | > 8.00 | > 8.00 | – | – | –
CC(C)c1cnn2ccc(-c3nc(Nc4ccc(N5CCN(CCF)CCC5=O)cn4)ncc3F)cc12 [compound 54] | – | 7.00 to 8.00 | > 8.00 | 6.30 to 7.00 | – | –
CC(C)n1cnc2c(OC(F)F)nc(-c3ccnc(Nc4ccc(N5CCC(N(C)C)CC5=O)cn4)n3)cc21 (stereo not drawn) [compound 64] | – | – | – | 6.30 to 7.00 | < 6.00 | > 8.00
CCN1CCC(Cn2ccc(Nc3nccc(-c4cc5c(ncn5C(C)C)c(OC)n4)n3)n2)CC1 [compound 135] | – | < 6.00 | 7.00 to 8.00 | 6.30 to 7.00 | – | –
CC(C)c1cnn2ccc(-c3ccnc(Nc4ccc(N5CCC(N(C)C)C5=O)cc4)n3)cc12 (stereo not drawn) [compound 144] | – | > 8.00 | > 8.00 | > 7.00 | – | –
CC(C)c1cnn2ccc(-c3ccnc(Nc4ccc(N5CCC(N(C)CCF)CC5=O)cn4)n3)cc12 (stereo not drawn) [compound 170] | – | 7.00 to 8.00 | > 8.00 | > 7.00 | – | –
CC(C)c1cnn2ccc(-c3ccnc(Nc4ccc(N5CCCC(N(C)C)C5=O)cc4)n3)cc12 (stereo not drawn) [compound 174] | – | 6.00 to 7.00 | > 8.00 | 6.30 to 7.00 | – | –
Cc1nn2ccc(-c3ccnc(Nc4ccc(N5CCCC(N(C)C)C5=O)cc4)n3)cc2c1C(C)C (stereo not drawn) [compound 178] | – | 6.00 to 7.00 | > 8.00 | > 7.00 | – | –
CNC1CCCN(c2ccc(Nc3nccc(-c4ccn5ncc(C(C)C)c5c4)n3)cn2)C1=O (stereo not drawn) [compound 185] | – | 7.00 to 8.00 | > 8.00 | > 7.00 | – | –
CC(C)c1cnn2ccc(-c3ccnc(Nc4ccc(N5CCC(NCCF)CC5=O)cn4)n3)cc12 (stereo not drawn) [compound 201] | – | > 8.00 | > 8.00 | > 7.00 | – | –

SMILES | pIC50 [1] | pIC50 ([2]; CDK2/CyclinE1, 100 μM ATP) | pIC50 ([3]; CDK4/CyclinD1, 200 μM ATP) | pIC50 ([1]; Homo sapiens, T47D) | pIC50 ([2]; CDK2/CyclinE1) | pIC50 ([3]; CDK4/CyclinD1)
CNC1CCCN(c2ccc(Nc3nccc(-c4ccn5ncc(C(C)C)c5c4)n3)nc2)C1=O (stereo not drawn) [compound 208] | – | 6.00 to 7.00 | > 8.00 | > 7.00 | – | –
CC(C)c1cnn2ccc(-c3ccnc(Nc4ccc(N5C(=O)C6CC5CN6)cn4)n3)cc12 (stereo not drawn) [compound 210] | – | 7.00 to 8.00 | > 8.00 | < 6.00 | – | –
CC(C)(C)c1cnn2ccc(-c3ccnc(Nc4ccc(N5C(=O)C6CC5CN6)cn4)n3)cc12 (stereo not drawn) [compound 211] | – | > 8.00 | > 8.00 | 6.00 to 6.30 | – | –
Cc1nn2ccc(-c3ccnc(Nc4ccc(N5CCCC(N)C5=O)cc4)n3)cc2c1C(C)C (stereo not drawn) [compound 216] | – | 7.00 to 8.00 | > 8.00 | > 7.00 | – | –
CC1(N)CCN(c2ccc(Nc3nccc(-c4ccn5ncc(C(C)(C)C)c5c4)n3)nc2)C(=O)C1 (stereo not drawn) [compound 219] | – | > 8.00 | > 8.00 | > 7.00 | – | –
CC(C)(C)c1cnn2ccc(-c3ccnc(Nc4ccc(N5CCCC(N)C5=O)cn4)n3)cc12 (stereo not drawn) [compound 220] | – | 7.00 to 8.00 | > 8.00 | > 7.00 | – | –
CNC1CCCN(c2ccc(Nc3nccc(-c4ccn5ncc(C(C)(C)C)c5c4)n3)nc2)C1=O (stereo not drawn) [compound 221] | – | < 6.00 | > 8.00 | > 7.00 | – | –
CC(C)n1cnc2c1CN(c1nc(Nc3ccc(N4CCNCC4=O)cn3)ncc1F)CC2 [compound 238] | – | 7.00 to 8.00 | > 8.00 | 6.30 to 7.00 | – | –
CC(C)n1cnc2c1CN(c1nc(Nc3ccc(N4CCOCC4=O)cn3)ncc1F)CC2 [compound 239] | – | 7.00 to 8.00 | > 8.00 | 6.30 to 7.00 | – | –
CC(C)n1cnc2c1CN(c1ccnc(Nc3ccc(N4CCCC(N)C4=O)cc3)n1)CC2 (stereo not drawn) [compound 246] | – | 6.00 to 7.00 | > 8.00 | 6.00 to 6.30 | – | –
CC(C)n1cnc2c1CN(c1nc(Nc3ccc(N4CCCC(N)C4=O)cc3)ncc1F)CC2 (stereo not drawn) [compound 247] | – | 7.00 to 8.00 | > 8.00 | > 7.00 | – | –
CNC1CCCN(c2ccc(Nc3ncc(F)c(N4CCc5ncn(C(C)C)c5C4)n3)cc2)C1=O (stereo not drawn) [compound 248] | – | 7.00 to 8.00 | > 8.00 | > 7.00 | – | –
CC(C)n1cnc2c1CN(c1nc(Nc3ccc(N4CCCC(N(C)C)C4=O)cc3)ncc1F)CC2 (stereo not drawn) [compound 249] | – | 7.00 to 8.00 | > 8.00 | > 7.00 | – | –
CC(C)N1CCN(c2ccc(Nc3ncc(F)c(N4CCc5ncn(C(C)C)c5C4)n3)nc2)CC1 [compound 250] | – | 6.00 to 7.00 | > 8.00 | > 7.00 | – | –
CC(C)n1cnc2c1CN(c1nc(Nc3ccc(N4CCCC(N(C)C)C4)cc3)ncc1F)CC2 (stereo not drawn) [compound 252] | – | > 8.00 | > 8.00 | > 7.00 | – | –
CC(C)n1cnc2c1CN(c1nc(Nc3ccc(N4CCCNC4=O)cc3)ncc1F)CC2 [compound 253] | – | 7.00 to 8.00 | > 8.00 | > 7.00 | – | –
CC(C)n1cnc2c1CN(c1nc(Nc3ccc(N4CCNCC4=O)cc3)ncc1F)CC2 [compound 257] | – | > 8.00 | > 8.00 | > 7.00 | – | –
